Measurements taken from PubChem BioAssay AID651806 (Broad Institute, 2012).
Active and inactive are the calls of the source.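 Rule for the calls: active = AC50 no higher than twice the top valid tested dose, with signal falling as dose rises; inconclusive = flat fit with partial inhibition, or a poor-quality fit; inactive = the rest, plus effects in the rising direction.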

Biological target: Kelch-like ECH-associated protein 1 (Homo sapiens) (UniProt Q14145)
Experiment: Keap1 Kelch-Nrf2 peptide binding inhibitors, dose response, biochemical, fluorescence polarization, dry powder, set 3 (AID 651806)
Details: Keap1 Kelch/FITC-Nrf2 peptide fluorescence polarization

Chain of Kelch-like ECH-associated protein 1 (Homo sapiens) (Q14145 whole entry, looked up): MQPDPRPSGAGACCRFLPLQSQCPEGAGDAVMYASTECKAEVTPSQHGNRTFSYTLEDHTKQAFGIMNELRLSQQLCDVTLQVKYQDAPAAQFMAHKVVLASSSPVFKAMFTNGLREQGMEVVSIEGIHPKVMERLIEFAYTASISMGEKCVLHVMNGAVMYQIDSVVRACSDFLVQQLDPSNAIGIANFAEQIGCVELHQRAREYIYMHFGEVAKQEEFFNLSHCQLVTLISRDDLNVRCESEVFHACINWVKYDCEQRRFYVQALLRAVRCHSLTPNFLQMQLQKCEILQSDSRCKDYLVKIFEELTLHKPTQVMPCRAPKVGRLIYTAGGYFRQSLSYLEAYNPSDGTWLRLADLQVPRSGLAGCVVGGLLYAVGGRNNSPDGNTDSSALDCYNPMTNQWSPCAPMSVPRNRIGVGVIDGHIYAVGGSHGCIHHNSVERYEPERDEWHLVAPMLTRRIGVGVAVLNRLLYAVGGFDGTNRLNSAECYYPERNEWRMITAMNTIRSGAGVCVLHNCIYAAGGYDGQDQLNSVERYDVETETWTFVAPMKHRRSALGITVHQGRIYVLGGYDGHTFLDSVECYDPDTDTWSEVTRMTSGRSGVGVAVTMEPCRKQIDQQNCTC

Compound | activity change, negative = inhibition (at 50 µM (top of the series)) | also measured
O=C1c2ccccc2C(=O)N1C[C@@H]1c2ccccc2CCN1C(=O)C1CCCCC1 | inactive | 
O=C(O)[C@H]1CCCC[C@H]1C(=O)N1CCc2ccccc2[C@H]1CNc1nc(Cl)nc2ccccc12 | inactive | 
O=C1c2ccccc2C(=O)N1C[C@H]1NCCc2ccccc21 | inactive | 
O=C(O)[C@H]1C2C=CC(C2)[C@H]1C(=O)N1CCc2ccccc2C1CN1C(=O)c2ccccc2C1=O (stereo not given in full) | inactive | 
COC(=O)[C@H]1CCCC[C@H]1C(=O)N1CCc2ccccc2[C@H]1CN1C(=O)c2ccccc2C1=O | inactive | 
Cc1cc(C)c(S(=O)(=O)Nc2cc(C(C(=O)OCc3ccccc3)C(=O)OCc3ccccc3)c(O)c3ccccc23)c(C)c1 | inactive | 
Cc1ccc(S(=O)(=O)NNc2nc(NCC(N)=O)nc3ccccc23)cc1 | inactive | 
O=C(O)[C@H]1CCCC[C@H]1C(=O)NC(CN1C(=O)c2ccccc2C1=O)c1ccccc1 (stereo not given in full) | inactive | 
CC(C)CNc1nc(NS(=O)(=O)c2ccccc2)c2ccccc2n1 | inactive | 
O=C(O)C1CCCCC1C(=O)N1CCc2ccccc2[C@H]1C(=O)NCCc1ccccc1 (stereo not given in full) | inactive | 
Cc1ccc(S(=O)(=O)NNc2nc(N3CC(O)CC3C(=O)O)nc3ccccc23)cc1 (stereo not given) | inactive | 
O=C(O)/C=C\C(=O)N1CCc2ccccc2C1CN1C(=O)c2ccccc2C1=O (stereo not given) | inactive | 
Cc1cc(C)c(S(=O)(=O)Nc2nc(N(C)C)nc3ccccc23)c(C)c1 | inactive | 
O=C(NC[C@@H]1c2ccccc2CCN1C(=O)[C@@H]1CCCC[C@@H]1C(=O)O)c1ccc(CCl)cc1 | inactive | 
Cc1ccc(S(=O)(=O)NC(=O)[C@@H]2c3ccccc3CCN2C(=O)[C@@H]2CCCC[C@@H]2C(=O)O)cc1 | inactive | AC50: > 100 µM (inactive)
CCOC(=O)Cc1nc(NS(=O)(=O)c2c(C)cc(C)cc2C)c2ccccc2n1 | inactive | 
O=C(NC[C@@H]1c2ccccc2CCN1C(=O)[C@@H]1CCCC[C@@H]1C(=O)O)c1ccc(CN2CCOCC2)cc1 | inactive | 

Compound | activity change, negative = inhibition (at 50 µM (top of the series)) | also measured
C[C@@H](NC(=O)C1CCCC[C@H]1C(=O)O)c1ccccc1 (mixture of isomers) | inactive | 
O=C(O)c1ccccc1C(=O)N1CCc2ccccc2C1CN1C(=O)c2ccccc2C1=O (stereo not given) | inactive | 
O=C1c2ccccc2C(=O)N1CC1c2ccccc2CCN1C(=O)Cc1ccccc1 (stereo not given) |  | activity change, negative = inhibition (at 12 µM (top of the series)): inactive
O=C(O)CCCC(=O)N1CCc2ccccc2C1CN1C(=O)c2ccccc2C1=O (stereo not given) | inactive | 
O=C(O)[C@@H]1CCCN1C(=O)N1CCc2ccccc2[C@H]1CN1C(=O)c2ccccc2C1=O | inactive | 
O=C(O)C1CCCCC1C(=O)N1CCc2ccccc2C1c1ccccc1 (stereo not given) | inactive | 
COC(=O)C1CCCCC1C(=O)N1CCc2ccccc2C1CN1C(=O)c2ccccc2C1=O (stereo not given) | inactive | 
Cc1ccccc1S(=O)(=O)Nc1cc(C(C(=O)OC(C)C)C(=O)C(F)(F)F)c(O)c2ccccc12 (stereo not given) |  | AC50: > 100 µM (inactive)
O=C(O)CC(=O)N1CCc2ccccc2C1CN1C(=O)c2ccccc2C1=O (stereo not given) | inactive | 
O=C(O)[C@H]1CCCC[C@H]1C(=O)N1CCc2ccccc2[C@H]1CNS(=O)(=O)c1ccccc1 | inactive | 
O=C(NCCCN1CCOCC1)c1ccccc1C(=O)NC[C@@H]1c2ccccc2CCN1C(=O)C1CCCCC1C(=O)O (stereo not given in full) | inactive | 
C=CC(=O)NC[C@@H]1c2ccccc2CCN1C(=O)[C@@H]1CCCC[C@@H]1C(=O)O | inactive | 
Cc1ccc(S(=O)(=O)NC[C@@H]2c3ccccc3CCN2C(=O)[C@@H]2CCCC[C@@H]2C(=O)O)c(C)c1 | inactive | 
Cc1cc(C)c(S(=O)(=O)Nc2nc(C(C(=O)OC(C)C)C(=O)C(F)(F)F)nc3ccccc23)c(C)c1 (stereo not given) | inactive | 
O=C(O)c1ccccc1C(=O)NC[C@@H]1c2ccccc2CCN1C(=O)[C@@H]1CCCC[C@@H]1C(=O)O | inactive | 
O=C(NC[C@@H]1c2ccccc2CCN1C(=O)[C@@H]1CCCC[C@@H]1C(=O)O)OCC1c2ccccc2-c2ccccc21 | inactive | 
COC(=O)CNc1nc(NS(=O)(=O)c2c(C)cc(C)cc2C)c2ccccc2n1 | inactive | 
